Laboratory results from ChEMBL document CHEMBL1201862, “PubChem BioAssay data set” (2004).
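48-hour exposure; five concentrations; linearly interpolated endpoints. At the GI50, growth is halved.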 Calls of active or inactive are those of the source. Cut-off read from the data, not from the text of the source: active = GI50 up to about 1.1 µM and inactive = higher.

How the values were obtained:
Assay in all cases: inhibition of tumour cell growth, NCI panel, 48 h
MDA-N = test system: MDA-N
NCI-H522 = test system: NCI-H522
SN12C = test system: SN12C
T47D = test system: T47D
PC-3 = test system: PC-3
BT-549 = test system: BT-549
UO-31 = test system: UO-31
CCRF-CEM = test system: CCRF-CEM
LOX IMVI = test system: LOX IMVI
HL-60 = test system: HL-60
NCI-H226 = test system: NCI-H226
RPMI-8226 = test system: RPMI-8226
DU-145 = test system: DU-145
Hs-578T = test system: Hs-578T
MDA-MB-231 = test system: MDA-MB-231
UACC-257 = test system: UACC-257
OVCAR-3 = test system: OVCAR-3
SK-MEL-5 = test system: SK-MEL-5
IGROV-1 = test system: IGROV-1
786-0 = test system: 786-0
TK-10 = test system: TK-10
UACC-62 = test system: UACC-62
HOP-62 = test system: HOP-62
HOP-92 = test system: HOP-92
U-251 = test system: U-251
CAKI-1 = test system: CAKI-1
RXF 393 = test system: RXF 393
K562 = test system: K562
OVCAR-5 = test system: OVCAR-5
HT-29 = test system: HT-29
MOLT-4 = test system: MOLT-4
SF-539 = test system: SF-539
HCT-15 = test system: HCT-15
Malme-3M = test system: Malme-3M
SK-MEL-28 = test system: SK-MEL-28
NCI-H23 = test system: NCI-H23
KM12 = test system: KM12
OVCAR-8 = test system: OVCAR-8
SF-268 = test system: SF-268
COLO 205 = test system: COLO 205
MDA-MB-435 = test system: MDA-MB-435
SW-620 = test system: SW-620
SK-MEL-2 = test system: SK-MEL-2
NCI-H460 = test system: NCI-H460
OVCAR-4 = test system: OVCAR-4
EKVX = test system: EKVX
SNB-19 = test system: SNB-19
ACHN = test system: ACHN
SF-295 = test system: SF-295
HCT-116 = test system: HCT-116
A549 = test system: A549
NCI/ADR-RES = test system: NCI/ADR-RES
SNB-75 = test system: SNB-75
M14 = test system: M14
SR = test system: SR
MCF7 = test system: MCF7
A498 = test system: A498
SK-OV-3 = test system: SK-OV-3
HCC 2998 = test system: HCC 2998

CN(C)CCN1C(=O)CC[C@@]2(C)C1=CC[C@@H]1[C@@H]2CC[C@@]2(C)[C@H]1CC[C@]2(C)O
GI50 (MDA-N): > 100 µM (inactive)
GI50 (NCI-H522): > 100 µM (inactive)
GI50 (SN12C): > 100 µM (inactive)
GI50 (T47D): > 100 µM (inactive)
GI50 (PC-3): > 100 µM (inactive)
GI50 (BT-549): > 100 µM (inactive)
GI50 (UO-31): > 100 µM (inactive)
GI50 (CCRF-CEM): > 100 µM (inactive)
GI50 (LOX IMVI): > 100 µM (inactive)
GI50 (HL-60): > 100 µM (inactive)
GI50 (NCI-H226): > 100 µM (inactive)
GI50 (RPMI-8226): > 100 µM (inactive)
GI50 (DU-145): > 100 µM (inactive)
GI50 (Hs-578T): > 100 µM (inactive)
GI50 (MDA-MB-231): > 100 µM (inactive)
GI50 (UACC-257): > 100 µM (inactive)
GI50 (OVCAR-3): > 100 µM (inactive)
GI50 (SK-MEL-5): > 100 µM (inactive)
GI50 (IGROV-1): > 100 µM (inactive)
GI50 (786-0): > 100 µM (inactive)
GI50 (TK-10): > 100 µM (inactive)
GI50 (UACC-62): > 100 µM (inactive)
GI50 (HOP-62): > 100 µM (inactive)
GI50 (HOP-92): > 100 µM (inactive)
GI50 (U-251): > 100 µM (inactive)
GI50 (CAKI-1): > 100 µM (inactive)
GI50 (RXF 393): > 100 µM (inactive)
GI50 (K562): > 100 µM (inactive)
GI50 (OVCAR-5): > 100 µM (inactive)
GI50 (HT-29): 39.8 µM (inactive)
GI50 (MOLT-4): > 100 µM (inactive)
GI50 (SF-539): > 100 µM (inactive)
GI50 (HCT-15): > 100 µM
GI50 (Malme-3M): > 100 µM (inactive)
GI50 (SK-MEL-28): > 100 µM (inactive)
GI50 (NCI-H23): > 100 µM (inactive)
GI50 (KM12): > 100 µM (inactive)
GI50 (OVCAR-8): > 100 µM (inactive)
GI50 (SF-268): > 100 µM (inactive)
GI50 (COLO 205): > 100 µM (inactive)
GI50 (MDA-MB-435): > 100 µM (inactive)
GI50 (SW-620): > 100 µM (inactive)
GI50 (SK-MEL-2): > 100 µM (inactive)
GI50 (NCI-H460): > 100 µM (inactive)
GI50 (OVCAR-4): > 100 µM (inactive)
GI50 (EKVX): > 100 µM (inactive)
GI50 (SNB-19): > 100 µM (inactive)
GI50 (ACHN): > 100 µM (inactive)
GI50 (SF-295): > 100 µM (inactive)
GI50 (HCT-116): 71.6 µM (inactive)
GI50 (A549): > 100 µM (inactive)
GI50 (NCI/ADR-RES): > 100 µM (inactive)
GI50 (SNB-75): > 100 µM (inactive)
GI50 (M14): > 100 µM (inactive)
GI50 (SR): > 100 µM (inactive)
GI50 (MCF7): > 100 µM (inactive)
GI50 (A498): > 100 µM (inactive)
GI50 (SK-OV-3): > 100 µM (inactive)

Cc1ccc(S(=O)(=O)C2=C([Si](C)(C)C)C3CC2[C@@H]2C4C=CC(CC4)[C@H]32)cc1 (stereo not given in full)
GI50 (MDA-N): > 100 µM (inactive)
GI50 (NCI-H522): 51.9 µM (inactive)
GI50 (SN12C): > 100 µM (inactive)
GI50 (T47D): 37.9 µM (inactive)
GI50 (PC-3): 35.3 µM (inactive)
GI50 (BT-549): > 100 µM (inactive)
GI50 (UO-31): > 100 µM (inactive)
GI50 (LOX IMVI): > 100 µM (inactive)
GI50 (HL-60): > 100 µM (inactive)
GI50 (NCI-H226): 95.3 µM (inactive)
GI50 (DU-145): > 100 µM (inactive)
GI50 (Hs-578T): 39.1 µM (inactive)
GI50 (MDA-MB-231): 26.5 µM (inactive)
GI50 (UACC-257): > 100 µM (inactive)
GI50 (OVCAR-3): 93.8 µM (inactive)
GI50 (SK-MEL-5): > 100 µM (inactive)
GI50 (IGROV-1): 85.5 µM (inactive)
GI50 (786-0): 34.6 µM (inactive)
GI50 (TK-10): 27 µM (inactive)
GI50 (UACC-62): 60.5 µM (inactive)
GI50 (HOP-62): 40.8 µM (inactive)
GI50 (HOP-92): 60.7 µM (inactive)
GI50 (U-251): 23.9 µM (inactive)
GI50 (CAKI-1): 82.6 µM (inactive)
GI50 (RXF 393): 33.5 µM (inactive)
GI50 (K562): > 100 µM (inactive)
GI50 (OVCAR-5): > 100 µM (inactive)
GI50 (HT-29): > 100 µM (inactive)
GI50 (MOLT-4): > 100 µM (inactive)
GI50 (SF-539): 25.6 µM (inactive)
GI50 (HCT-15): > 100 µM
GI50 (Malme-3M): > 100 µM (inactive)
GI50 (SK-MEL-28): > 100 µM (inactive)
GI50 (KM12): > 100 µM (inactive)
GI50 (OVCAR-8): > 100 µM (inactive)
GI50 (SF-268): 38.1 µM (inactive)
GI50 (COLO 205): > 100 µM (inactive)
GI50 (MDA-MB-435): > 100 µM (inactive)
GI50 (SW-620): > 100 µM (inactive)
GI50 (SK-MEL-2): 23.3 µM (inactive)
GI50 (NCI-H460): 86.1 µM (inactive)
GI50 (OVCAR-4): > 100 µM (inactive)
GI50 (EKVX): > 100 µM (inactive)
GI50 (SNB-19): 23.8 µM (inactive)
GI50 (ACHN): 99.5 µM (inactive)
GI50 (SF-295): 28.4 µM (inactive)
GI50 (HCT-116): > 100 µM (inactive)
GI50 (HCC 2998): > 100 µM (inactive)
GI50 (A549): > 100 µM (inactive)
GI50 (NCI/ADR-RES): > 100 µM (inactive)
GI50 (M14): > 100 µM (inactive)
GI50 (SR): > 100 µM (inactive)
GI50 (MCF7): > 100 µM (inactive)
GI50 (A498): > 100 µM (inactive)
GI50 (SK-OV-3): 45.1 µM (inactive)

CCCOC1OC(CS(=O)(=O)O)C(OC(C)=O)C(OC(C)=O)C1OC(C)=O (stereo not given)
GI50 (MDA-N): > 100 µM (inactive)
GI50 (SN12C): > 100 µM (inactive)
GI50 (T47D): > 100 µM (inactive)
GI50 (PC-3): > 100 µM (inactive)
GI50 (BT-549): > 100 µM (inactive)
GI50 (UO-31): > 100 µM (inactive)
GI50 (CCRF-CEM): > 100 µM (inactive)
GI50 (LOX IMVI): > 100 µM (inactive)
GI50 (HL-60): > 100 µM (inactive)
GI50 (NCI-H226): > 100 µM (inactive)
GI50 (RPMI-8226): > 100 µM (inactive)
GI50 (DU-145): > 100 µM (inactive)
GI50 (Hs-578T): > 100 µM (inactive)
GI50 (MDA-MB-231): > 100 µM (inactive)
GI50 (UACC-257): > 100 µM (inactive)
GI50 (OVCAR-3): > 100 µM (inactive)
GI50 (SK-MEL-5): > 100 µM (inactive)
GI50 (IGROV-1): > 100 µM (inactive)
GI50 (TK-10): > 100 µM (inactive)
GI50 (UACC-62): > 100 µM (inactive)
GI50 (HOP-62): > 100 µM (inactive)
GI50 (HOP-92): > 100 µM (inactive)
GI50 (U-251): > 100 µM (inactive)
GI50 (CAKI-1): > 100 µM (inactive)
GI50 (RXF 393): > 100 µM (inactive)
GI50 (K562): > 100 µM (inactive)
GI50 (OVCAR-5): > 100 µM (inactive)
GI50 (HT-29): > 100 µM (inactive)
GI50 (MOLT-4): > 100 µM (inactive)
GI50 (HCT-15): > 100 µM
GI50 (Malme-3M): > 100 µM (inactive)
GI50 (SK-MEL-28): > 100 µM (inactive)
GI50 (NCI-H23): > 100 µM (inactive)
GI50 (KM12): > 100 µM (inactive)
GI50 (OVCAR-8): > 100 µM (inactive)
GI50 (COLO 205): > 100 µM (inactive)
GI50 (MDA-MB-435): > 100 µM (inactive)
GI50 (SW-620): > 100 µM (inactive)
GI50 (SK-MEL-2): > 100 µM (inactive)
GI50 (NCI-H460): > 100 µM (inactive)
GI50 (OVCAR-4): > 100 µM (inactive)
GI50 (SNB-19): > 100 µM (inactive)
GI50 (SF-295): > 100 µM (inactive)
GI50 (HCT-116): > 100 µM (inactive)
GI50 (HCC 2998): > 100 µM (inactive)
GI50 (NCI/ADR-RES): > 100 µM (inactive)
GI50 (SNB-75): > 100 µM (inactive)
GI50 (M14): > 100 µM (inactive)
GI50 (SR): > 100 µM (inactive)
GI50 (MCF7): > 100 µM (inactive)
GI50 (A498): > 100 µM (inactive)
GI50 (SK-OV-3): > 100 µM (inactive)
